Measured values as given in PMC4741798, “Imaging of carbonic anhydrase IX with an ^111In-labeled dual-motif inhibitor” (Oncotarget, 2015).
Entries after “also recorded” stand apart in the source; their conditions may differ.

How the values were obtained:
CAIX = target: CAIX; design: method as in PMID 25698334; settings: reported value; cited from earlier work
[1] = tested on: CAIX-expressing SK-RC-52 cells; assay: FACS analysis of cell binding; type: cell-based
Method: (§1) CAIX-positive SK-RC-52 and CAIX-negative BxPC3 cells were maintained in RPMI 1640 media supplemented with 10% FBS and 1 × penicillin-streptomycin in a 37°C humidified incubator. Cells were detached from the flask with trypsin and reconstituted in RPMI 1640 media supplemented with 1% FBS at a density of 1 × 10^6 cells per mL. FITC-labeled 8 was added to the cells at the indicated concentration and incubated at room temperature for 30 min. Cells were washed twice with the same media for staining and analyzed using the FACSCalibur (BD Bioscience, San Jose, CA) instrument.

[2] = tested on: CAIX-negative BxPC3 cells; assay: FACS analysis of cell binding; type: cell-based; settings: 30 min room temperature
Method: as §1

CAXII = target: T1, CAXII (Homo sapiens, UniProt O43570); assay: Fluorescence polarization for affinity comparison (saturation binding); settings: Fig. 4C
T1 construct: purchased R&D Systems
Method: (§2) Figure 4 Compound 8 had higher binding affinity to CAIX compared to CAII and CAXII Saturation binding curves for CAII, CAIX, and CAXII were generated. 5 nM of compound 8 was titrated by increasing concentrations of CAII, CAIX, and CAXII and the resultant fluorescence polarization (mP) was measured, with EC50 values calculated. […] The target in front of each value (CAII, CAIX, CAXII) is taken from the x-axis title of that panel.
(§3) Human recombinant CAII, CAIX, and CAXII were purchased from R&D systems (Minneapolis, MN). 5 nM of FITC-labeled 8 were mixed with serially diluted (from 1 μM to 19 fM) isoforms of the carbonic anhydrases in PBS within 384 well Small Volume™ LoBase Microplates (Greiner Bio-One, Frickenhausen Germany). The mixtures were incubated at room temperature for 1 h. Fluorescence polarization was measured using a Safire2™ plate reader (Tecan, Morrisville, NC), with 475 nm excitation and 530 nm emission wavelengths.

CAII = target: T2, CAII (Homo sapiens, UniProt P00918); assay: as above; settings: Fig. 4A
T2 construct: purchased R&D Systems
Method: as §2, §3

[3] = tested on: CAIX-expressing SK-RC-52 cells; assay: Fluorescence microscopic analyses of labeled cells; type: cell-based; settings: 100 nM of 8 for 1 h; BxPC3 as negative cells
Method: CAIX-positive SK-RC-52 and CAIX-negative BxPC3 cells were seeded on to 8-well chamber glass slides (Lab-Tek®IICC^2™, Nunc, Rochester NY) and incubated in RPMI 1640 media supplemented with 10% FBS and 1 × penicillin-streptomycin in a 37°C humidified incubator for 48 h. Cells were stained with 100 nM of FITC-labeled 8 for 1 h in the same growth media followed by washing twice with the same media. Cells were fixed with 10% formaldehyde (Sigma-Aldrich, Saint Louis, MO) and washed three times with PBS. Cells were treated with 20 nM DAPI (4′,6-diamidino-2-phenylindole) in PBS. The chambers were removed and the Vectashield mounting solution (Vector Laboratories, Inc., Burlingame, CA) was added to the sample. Fluorescence microscopic images were taken using the Nikon Eclipse 80i epifluorescence microscope (Nikon Instruments Inc., Melville, NY) and the images were processed by the Element software (Nikon Instruments Inc.).

T1 sequence (O43570 25-354): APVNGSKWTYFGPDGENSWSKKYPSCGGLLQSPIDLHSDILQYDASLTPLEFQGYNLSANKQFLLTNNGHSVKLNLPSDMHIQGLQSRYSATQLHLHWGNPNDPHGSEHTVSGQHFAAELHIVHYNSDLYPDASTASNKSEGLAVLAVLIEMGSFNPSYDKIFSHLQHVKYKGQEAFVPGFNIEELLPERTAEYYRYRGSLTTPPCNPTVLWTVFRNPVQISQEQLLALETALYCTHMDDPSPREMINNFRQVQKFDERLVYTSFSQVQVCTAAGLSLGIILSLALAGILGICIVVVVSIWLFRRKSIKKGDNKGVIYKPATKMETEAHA

CC(CCC(=O)N[C@@H](CC(=O)N[C@@H](CC(=O)N[C@@H](CCCCn1cc(CCCC(=O)Nc2nnc(S(N)(=O)=O)s2)nn1)C(=O)NCCOCCOCCNC(=S)Nc1ccc(-c2c3ccc(=O)cc-3oc3cc(O)ccc23)c(C(=O)O)c1)C(=O)O)C(=O)O)(c1ccc(O)cc1)c1ccc(O)cc1 [Compound 8]
Kd (CAIX): 0.2 nM | lowest concentration with significant binding to cells (FACS) [1]: 10 nM | binding to cells by FACS (in words) ([1]; 30 min room temperature): bound specifically | binding to cells by FACS (in words) [2]: not to CAIX-negative BxPC3 cells | affinity to CAXII relative to CAIX (in words) (CAXII): about three-fold lower affinity | binding affinity to cytosolic CAII (in words) (CAII): poor binding affinity | cell surface staining by fluorescence microscopy (in words) [3]: Only SK-RC-52 cells were stained with 8 on the surface of the cells; also recorded: bound to the cell surface of SK-RC-52
